For seven molecules, EC50 results are on record in patent US8022035B2, “Y4 selective receptor agonists for therapeutic interventions” (7TM Pharma A/S, priority 2005, dated 2011).

Where two headings read alike, the source gives them in different places. Where no end group is shown, it is not given here.

Holding throughout (type): cell-based
Experiment [1] has as its target T1, human Y2 receptor (Homo sapiens, UniProt P49146).
T1 construct: expressed in transfected cells; host or cells: COS-7 cells, transient transfection, co-transfected with Gqi5
T1 sequence (P49146 1-381): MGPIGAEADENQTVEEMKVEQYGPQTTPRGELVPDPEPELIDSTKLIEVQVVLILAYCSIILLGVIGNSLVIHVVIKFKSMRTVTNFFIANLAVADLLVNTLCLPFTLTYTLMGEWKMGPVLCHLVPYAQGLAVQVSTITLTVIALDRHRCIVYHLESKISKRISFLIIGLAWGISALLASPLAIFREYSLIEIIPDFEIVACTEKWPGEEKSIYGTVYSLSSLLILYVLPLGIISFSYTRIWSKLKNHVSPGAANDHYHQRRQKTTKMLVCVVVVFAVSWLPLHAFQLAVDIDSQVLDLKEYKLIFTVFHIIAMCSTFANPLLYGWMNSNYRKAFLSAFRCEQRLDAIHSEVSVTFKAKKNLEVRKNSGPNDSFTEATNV
The experiment is described as follows: Human Y2 receptor potency assay (inositol phosphate turnover). The method, then: Potency of the test compounds on the human Y2 receptor is determined by performing dose-response experiments in COS-7 cells transiently transfected with the human Y2 receptor as well as a promiscuous G protein, Gqi5 which ensures that the Y2 receptor couples through a Gq pathway leading to an increase in inositol phosphate turnover. […] After stimulation with various concentrations of peptide for 45 min at 37 C, cells are extracted with 10% ice-cold perchloric acid followed by incubation on ice for 30 min. […] Determinations are made in duplicates.

Experiment [2] addresses T2, human Y1 receptor (Homo sapiens, UniProt P25929).
T2 construct: expressed in transfected cells; host or cells: COS-7 cells
T2 sequence (P25929 1-384): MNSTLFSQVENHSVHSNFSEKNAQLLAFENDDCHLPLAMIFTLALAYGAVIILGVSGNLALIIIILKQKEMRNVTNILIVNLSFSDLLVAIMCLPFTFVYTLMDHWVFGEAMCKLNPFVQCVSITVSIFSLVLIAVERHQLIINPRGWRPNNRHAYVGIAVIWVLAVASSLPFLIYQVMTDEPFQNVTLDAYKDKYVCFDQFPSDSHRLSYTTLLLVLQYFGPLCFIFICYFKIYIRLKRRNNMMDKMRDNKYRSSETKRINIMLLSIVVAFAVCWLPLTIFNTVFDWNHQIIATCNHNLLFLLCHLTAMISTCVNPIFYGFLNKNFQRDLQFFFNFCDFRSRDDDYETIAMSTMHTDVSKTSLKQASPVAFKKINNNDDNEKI
The experiment is described as follows: Human Y1 receptor potency assay (inositol phosphate turnover). The protocol: Cells are washed twice in buffer, 20 mM HEPES, pH 7.4, supplemented with 140 mM NaCl, 5 mM KCl, 1 mM MgSO4, 1 mM CaCl2, 10 mM glucose, 0.05% (w/v) bovine serum; and are incubated in 0.5 ml buffer supplemented with 10 mM LiCl at 37 C for 30 min. After stimulation with various concentrations of peptide for 45 min at 37 C, cells are extracted with 10% ice-cold perchloric acid followed by incubation on ice for 30 min. The resulting supernatants are neutralized with KOH in HEPES buffer, and the generated [3H]-inositol phosphate are purified on Bio-Rad AG 1-X8 anion-exchange resin and counted in a beta counter. Determinations are made in duplicates. EC50 values were calculated using a standard pharmacological data handling software, Prism 3.0 (graphpad Sofware, San Diego, USA).
Protocol as for the Y2 potency assay, except that human Y1-transformed COS-7 cells are used.

Experiment [3] concerns the target T3, human Y4 receptor (Homo sapiens, UniProt P50391).
T3 construct: expressed in transfected cells; host or cells: COS-7 cells
The experiment is described as follows: Human Y4 receptor potency assay (inositol phosphate turnover). The protocol:
After stimulation with various concentrations of peptide for 45 min at 37 C, cells are extracted with 10% ice-cold perchloric acid followed by incubation on ice for 30 min. The resulting supernatants are neutralized with KOH in HEPES buffer, and the generated [3H]-inositol phosphate are purified on Bio-Rad AG 1-X8 anion-exchange resin and counted in a beta counter. Determinations are made in duplicates. […] Protocol as for the Y2 potency assay, except that human Y4-transformed COS-7 cells are used.

The mark [4] stands for this setting: COS-7 cells transiently transfected with human Y2 receptor and Gqi5, [3H]-inositol phosphate turnover, peptide 45 min at 37 C, read-out: hY2 EC50.
[5] abbreviates: human Y1-transformed COS-7 cells, [3H]-inositol phosphate turnover, peptide 45 min at 37 C, read-out: hY1 EC50.

T3 sequence (P50391 whole entry): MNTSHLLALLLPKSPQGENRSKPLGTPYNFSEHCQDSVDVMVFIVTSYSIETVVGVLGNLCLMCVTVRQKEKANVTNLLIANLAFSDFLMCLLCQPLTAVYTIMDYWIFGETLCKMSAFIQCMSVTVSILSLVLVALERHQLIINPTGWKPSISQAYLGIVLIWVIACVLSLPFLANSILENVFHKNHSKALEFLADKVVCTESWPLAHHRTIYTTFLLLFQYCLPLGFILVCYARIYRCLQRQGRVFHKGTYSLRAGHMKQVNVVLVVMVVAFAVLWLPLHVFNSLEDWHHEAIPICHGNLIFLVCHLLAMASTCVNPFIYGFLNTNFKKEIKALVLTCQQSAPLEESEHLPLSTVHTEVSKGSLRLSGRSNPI

`CC[C@H](C)[C@H](NC(=O)[C@H](Cc1ccc(O)cc1)NC(=O)[C@H](CCCNC(=N)N)NC(=O)[C@H](CCCNC(=N)N)NC(=O)[C@H](CC(C)C)NC(=O)[C@H](CC(=O)O)NC(=O)[C@H](C)NC(=O)[C@H](C)NC(=O)[C@H](Cc1ccc(O)cc1)NC(=O)[C@H](CCC(N)=O)NC(=O)[C@H](C)NC(=O)[C@H](CCSC)NC(=O)[C@H](CCC(N)=O)NC(=O)[C@H](CCC(=O)O)NC(=O)[C@@H]1CCCN1C(=O)[C@@H](NC(=O)[C@H](C)NC(=O)[C@H](CC(N)=O)NC(=O)[C@H](CCC(=O)O)NC(=O)CNC(=O)[C@@H]1CCCN1C(=O)[C@H](Cc1ccc(O)cc1)NC(=O)[C@@H](NC(=O)[C@@H]1CCCN1C(=O)[C@H](CCC(=O)O)NC(=O)[C@H](CC(C)C)NC(=O)[C@@H]1CCCN1)C(C)C)[C@@H](C)O)C(=O)N[C@@H](CC(N)=O)C(=O)N[C@@H](CCSC)C(=O)N[C@@H](CC(C)C)C(=O)N[C@H](C(=O)N[C@@H](CCCNC(=N)N)C(=O)N1CCC[C@H]1C(=O)N[C@@H](CCCNC(=N)N)C(=O)N[C@@H](Cc1ccc(O)cc1)C(N)=O)[C@@H](C)O` [[Glu-10]-PP(2-36), [Glu10]PP2-36] registered an EC50 in experiment [1] above 1000 nM.

On to `CCCC[C@H](NC(=O)[C@H](CCC(N)=O)NC(=O)[C@H](CCC(=O)O)NC(=O)[C@@H]1CCCN1C(=O)[C@@H](NC(=O)[C@H](C)NC(=O)[C@H](CC(N)=O)NC(=O)[C@H](CC(=O)O)NC(=O)CNC(=O)[C@@H]1CCCN1C(=O)[C@H](Cc1ccc(O)cc1)NC(=O)[C@@H](NC(=O)[C@@H]1CCCN1C(=O)[C@H](CCC(=O)O)NC(=O)[C@H](CC(C)C)NC(=O)[C@@H]1CCCN1)C(C)C)[C@@H](C)O)C(=O)N[C@@H](C)C(=O)N[C@@H](CCC(N)=O)C(=O)N[C@@H](Cc1ccc(O)cc1)C(=O)N[C@@H](C)C(=O)N[C@@H](C)C(=O)N[C@@H](CC(=O)O)C(=O)N[C@@H](CC(C)C)C(=O)N[C@@H](CCCNC(=N)N)C(=O)N[C@@H](CCCNC(=N)N)C(=O)N[C@@H](Cc1ccc(O)cc1)C(=O)N[C@H](C(=O)N[C@@H](CC(N)=O)C(=O)N[C@@H](CCCC)C(=O)N[C@@H](CC(C)C)C(=O)N[C@H](C(=O)N[C@@H](CCCNC(=N)N)C(=O)N1CCC[C@H]1C(=O)N[C@@H](CCCNC(=N)N)C(=O)N[C@@H](Cc1ccc(O)cc1)C(N)=O)[C@@H](C)O)[C@@H](C)CC` [[Nle17,Nle30]-PP(2-36), [Nle17, Nle30]PP2-36], for which, in experiment [1] (setting [4]), the EC50 was above 1000 nM.

On to “PLEPVYPGDNATPEQMAQYAADLRRYINALTRPRY-NH2 [[Ala-30]-PP(2-36), [Ala30]PP2-36]”, for which the EC50 in experiment [1] (setting [4]) and in experiment [2] (setting [5]) was above 1000 nM in each case.

On to “PLEPVYPGDNATPEQMAQYAADLRRYINNLTRPRY-NH2 [[Asn-30]-PP(2-36), [Asn30]PP2-36]”, for which the EC50 in experiment [1] (setting [4]) and in experiment [2] (setting [5]) was above 1000 nM each time.

On to “PLEPVYPGDNATPEQMAQYAADLRRYINQLTRPRY-NH2 [[Gln-30]-PP(2-36), [Gln30]PP2-36]”, for which the EC50 in experiment [1] (setting [4]) and in experiment [2] (setting [5]) was above 1000 nM in each case.

Consider “PLEPVYPGDNATPEQMAQYAADLRRYINTLTRPRY-NH2 [[Thr-30]-PP(2-36), [Thr30]PP2-36]”, for which the EC50 was above 1000 nM in experiment [1] (setting [4]); 1.07 nM in experiment [3] (human Y4-transformed COS-7 cells, [3H]-inositol phosphate turnover, peptide 45 min at 37 C, read-out: hY4 EC50); above 1000 nM in experiment [2] (setting [5]).

With “PLEPVYPGENATPEQLAQYAADLRRYINTLTRPRY-NH2 [[Glu10;Leu17;Thr-30]-PP(2-36), [Glu10, Leu17, Thr30]PP2-36]”, the EC50 in experiment [1] is above 1000 nM; in experiment [3], 1.07 nM; in experiment [2], above 1000 nM.
